Measurements: US11840560B2, “Prodrugs and uses thereof” (Novo Nordisk A/S, priority 2022, dated 2023)
*1 amine or outer side, *2 acyl side, *3 side chain or, on linkers, in order; H or OH if unused. Side-chain parts run from the residue outwards. [ ]: non-standard residue; d: D form. The star is where a group is joined. C16 diacid = O=C(O)CCCCCCCCCCCCCCC(=O)*; γGlu = O=C(O)[C@H](CCC(=O)[*:2])N[*:1]; AEEA = NCCOCCOCC(=O)O; Aib = CC(C)(N)C(=O)O; Sar = CNCC(=O)O

What was measured:
physchem = format: physicochemical; conditions: buffer, pH 7.4
Description: The assay was performed to investigate the conversion half-life of prodrug to drug of the prodrugs of the invention. The conversion half-life was investigated in vitro at pH 7.4 upon incubation at 37° C.
Test compounds were dissolved to a concentration of 100 μM in phosphate-buffered saline (140 mM NaCl, 2.07 mM KCl, 8.05 mM Na2HPO4, 1.96 mM KH2PO4, pH 7.4). Solution pH was measured after dissolution and adjusted to pH 7.4 with aqueous NaOH if necessary. The solution was filtered through a 0.22 μm syringe filter, then incubated in a water bath at 37° C. Aliquots were withdrawn at defined timepoints, e.g. every 24-72 hours, for LCMS analysis.
LCMS analysis was performed using the procedure defined in LCMS_A above. The AUC of the prodrug, active drug, and DKP were determined using UV detection at 214 nm, and the ratio of prodrug AUC over total AUC of prodrug plus active drug plus DKP was calculated. The negative natural logarithm of this ratio was plotted over time, and a linear regression of this relationship was then performed.
The prodrug to drug conversion half-life of the compounds of the invention was measured as described in General Methods for Measuring Conversion Half-life.

in vivo [1] = test: in vivo; design: species or system Göttingen minipigs; conditions: female, Göttingen, minipig, iv
Description: The purpose of this method is to determine the half-life in vivo of the derivatives of the present invention after i.v. administration to minipigs, i.e. the prolongation of their time in the body and thereby their time of action. This is done in a pharmacokinetic (PK) study, where the terminal half-life of the derivative in question is determined. By terminal half-life is generally meant the period of time it takes to halve a certain plasma concentration, measured after the initial distribution phase.
Female Göttingen minipigs were obtained from Ellegaard Göttingen Minipigs (Dalmose, Denmark) approximately 7-14 months of age and weighing from approximately 16-35 kg were used in the studies. The minipigs were housed individually and fed restrictedly once daily with SDS minipig diet (Special Diets Services, Essex, UK).
After at 3 weeks of acclimatisation two permanent central venous catheters were implanted in vena cava caudalis in each animal. The animals were allowed 1 week recovery after the surgery, and were then used for repeated pharmacokinetic studies with a suitable wash-out period between successive derivative dosing.
The animals were fasted for approximately 18 hours before dosing and from 0 to 4 hours after dosing but had ad libitum access to water during the whole period.
The sodium salts of compounds of Examples 1 were prepared using method SX_A under General Methods for preparation of the compounds of the invention. The resulting sodium salts were dissolved to a concentration of 50-300 nmol/mL in a buffer containing 0.007% polysorbate 20, 50 mM sodium phosphate, 70 mM sodium chloride, pH 7.4. Intravenous injections (the volume corresponding to usually 1-20 nmol/kg, for example 0.02-0.05 mL/kg) of the compounds were given through one catheter, and blood was sampled at predefined time points for up to 21 days post dosing (preferably through the other catheter). Blood samples (for example 0.8 mL) were collected in 8 mM EDTA buffer and then centrifuged at 4° C. and 1942 g for 10 minutes.
Plasma was pipetted into Micronic tubes on dry ice and kept at −20° C. until analysed for plasma concentration of the compounds using ELISA, or a similar antibody-based assay, or LCMS. Individual plasma concentration-time profiles were analysed by a non-compartmental model in Phoenix WinNonLin ver. 6.4. (Pharsight Inc., Mountain View, CA, USA), and the resulting terminal half-lives (harmonic mean) determined.
The terminal half-lives and/or the observed terminal half-lives, measured as described herein in General Methods for Measuring Terminal Half-Life in Minipigs are shown in Table 7. […] This provides evidence that conversion of prodrug to parent compound is occurring in vivo. The terminal half-life of the prodrug may be faster or slower than the corresponding parent compound due to the contribution of conversion on the terminal half-life of the prodrug.

in vivo [2] = test: in vivo; design: species or system beagle dogs; conditions: dog, po, 300 mg; for Tmax / half-life: male, beagle
Outline: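 Fasted male beagle dogs (groups of 6-8) were given a single oral tablet of 2-4 mg compound with 300 mg SNAC, optionally preceded 10 min earlier by ~3 nmol/kg SEQ ID NO.: 7 s.c. EDTA plasma was sampled for up to 600 hours and analysed by LC-MS for terminal half-life and exposure.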

Substance | half-life at 100 μM (physchem) | half-life (in vivo [1]) | AUC/Dose (in vivo [2]) | Cmax/Dose (in vivo [2]) | Tmax (in vivo [2]) | half-life (in vivo [2])
H-[dK]([AEEA-AEEA-γGlu-C16 diacid])[Sar]Y[Aib]EGTFTSDYSILLEEQAAREFIEWLLAGGPSK([AEEA-AEEA-γGlu-C16 diacid])GAPPPS-OH [Compound 10] | 195 h | 118 h | – | – | – | –
H-K([γGlu-C16 diacid])[Sar]Y[Aib]EGTFTSDYSILLEEQAAREFIEWLLAGGPSK([AEEA-AEEA-γGlu-C16 diacid])GAPPPS-OH [Compound 3] | 111 h | 119 h | 38.5 kg·h/L | 0.32 kg/L | 7 h | 139 h
H-K([Gly-γGlu-C16 diacid])[Sar]Y[Aib]EGTFTSDYSILLEEQAAREFIEWLLAGGPSK([AEEA-AEEA-γGlu-C16 diacid])GAPPPS-OH [Compound 9] | 132 h | 102 h | – | – | – | –
H-[dK]([γGlu-C16 diacid])[Sar]Y[Aib]EGTFTSDYSILLEEQAAREFIEWLLAGGPSK([AEEA-AEEA-γGlu-C16 diacid])GAPPPS-OH [Compound 1] | 244 h | 118 h | 41.2 kg·h/L | 0.66 kg/L | 4 h | 146 h
